Measurements published in publication PMC5650372 (Oncotarget, 2017).

Experiments:
[1] = tested on: hematological and solid tumor cell lines; test: Caspase 3/7-Glo apoptosis assay; format: cell-based, human; details: 24 h, subset of hematological and solid tumor cell lines
Procedure: Proliferation assays were performed as previously described. […] The concentration of compound required for a 2-fold induction of Caspase was determined (CalX).

[2] = tested on: ATM-proficient cell lines (MDA-MB-231, MCF7, CAL51, HCC1937); test: Colony-formation assay; format: cell-based, human; details: versus ATM-deficient HCC1187
Procedure: MCF7, Cal51, MDA-MB-231, H1937, MDA-MB-175VII and HCC1187 human breast cancer cell lines were plated at 2000 cells per well in 6-well plates and HCC1500 breast cancer cell line was plated at 10,000 cells per well in 6-well plates and cultured overnight. Cells were then treated with compounds at indicated concentrations. Media and compounds were changed every three days. Plates were incubated for a total of about two weeks then fixed and stained using the DIFF QUIK staining kit (Microptic, Barcelona, Spain). Colonies were imaged and counted.

[3] = biological target: T1, DNA-PKcs, XRCC4 and DNA ligase IV on DNA (Homo sapiens, UniProt P78527); test: DNA end binding assay (MCF7 nuclear extract); format: biochemical; details: 5 μM, MCF7 nuclear extract, 10, 30, 60 minutes
T1 construct: endogenous in cells; host or cells: MCF7 nuclear extract
Excerpt: One kb of DNA fragment, including an EcoRI sequence in the middle, was amplified by PCR using pEGFP as a template and a pair of biotinylated EGFP primers (5′-biotin-[…]-3′ and 5′-biotin-[…]-3′: Valuegene, San Diego, CA). The amplified DNA fragment was cleaved by EcoRI to produce two 0.5 kb biotinylated DNA fragments, and was purified using the QIAquick PCR purification kit (Qiagen). […] An aliquot of the reaction was removed at each time point to separate the supernatant and the beads. The supernatant was subjected to SDS-PAGE and immunoblotting with indicated antibodies. The beads were washed twice with 250 μL of IP buffer (25 mM Hepes-KOH, pH 7.5, 100 mM NaCl, 20% glycerol, 5 mM EDTA, 1 mM DTT, 0.05% Nonidet P-40, 10 mM NaF, and protease inhibitor mixture) and subjected to SDS-PAGE and immunoblotting with indicated antibodies.

[4] = tested on: pS6 S235/236 in NCI-H441 cells; test: Western blot quantitation of pS6 S235/236 (mTORC1 biomarker); format: cell-based; details: Homo sapiens; NCI-H441, presence of bleomycin, 2 hrs, n=3; read-out: IC50 of pS6 S235/236 inhibition
NHEJ in Cal-51 cells [5] = test: Cellular NHEJ assay with GFP reporter gene; format: cell-based, human; details: 1 μM
Procedure: deficient cell growth in vitro […]
incorporated in the corresponding no inhibitor control mTOR, DNA-PK and PI3K-alpha assays were to determine percent inhibition. An IC50 value was then performed as reported previously. estimated.
(§1) ATM and ATR assay and IC50 determination Cellular NHEJ assay
(§2) HA-ATM and FLAG-ATR (HA-labeled ATM, and The experimental design is illustrated in FLAG-labeled ATR) were each transiently expressed in Supplementary Figure 4. Cal-51 breast cancer cells HEK293 cells (293FT cells, Invitrogen Cat: R700-07) were separately transfected with pEGFP plasmid (6085-using Lipofectamine as transfection reagent. Cells were 1, Clontech, Mountain View, CA) digested with either harvested 6 days post transfection and spun down to EcoRI (to measure NHEJ) or StuI (to measure transfection separate cells from media. Cells were then lysed using a efficiency) using a Amaxa cell line nuclearfector kit V lysis buffer (50 mM Tris buffer, (Tris(hydroxylmethyl)- (CCA-1003, Lonza). Immediately after the transfection, aminomethane, pH 7.5), 100 mM NaCl, 50 mM βGOP, the cells were treated with DMSO or compounds at 10% Glycerol, 0.5% Tween 20, 1 mM EDTA, 25 mM indicated concentrations for 24 hours and GFP-positive sodium fluoride (NaF), 20 nM microcystine, 2 mM cells were counted under a fluorescent microscope. […]

[6] = tested on: NHEJ in HCT116 colorectal cancer cells; test: 384-well image-based cellular NHEJ assay; format: cell-based; details: Homo sapiens, HCT-116; HCT116, n=3
Excerpt: as §1
as §2, with “microscope. NHEJ phenylmethylsulfonylfluoride (PMSF) and protease activity was calculated by the number of GFP-positive inhibitor cocktail) followed by sonication 3 times and a cells in cells transfected with pEGFP-EcoRI divided by final spin at 20,000 rpm for 30 minutes to generate a clear that in cells transfected with pEGFP-StuI, multiplied by lysate. To perform the immunoprecipitation, enzymes were 100.” for “microscope.”
(§3) or FLAG tags. Beads plus enzymes were then washed 3 developed. Different cell lines were transfected using times with lysis buffer and spun down at 1000 rpm for the procedure described above and subsequently seeded 1 minute. Beads plus enzymes were resuspended in lysis into 384-well plates at optimized density for individual buffer and kept at 4°C until assay. Assays for ATM and cell lines. Cells were then treated with compounds at ATR were conducted in a 33P radioactive assay format. increasing concentrations. GFP+ cells were imaged Assay buffer contained the following reagents: 1 mg/mL and quantitated using the IncuCyte (Essen Bioscience, GST-p53 (glutathione S-transferase–p53 fusion protein) Ann Arbor, MI). NHEJ activity was then normalized substrate (expressed in-house), 20 μg/mL calf thymus to the DMSO control and fitted to the Sigmoidal Dose-DNA activator (Sigma), 100 μg/mL BSA, 200 μM EGTA Response Model (IDBS XLFit Model 205; London, UK)

NHEJ in Cal-51 cells [7] = test: 384-well image-based cellular NHEJ assay; format: cell-based; details: Homo sapiens; Cal-51, n=3
Excerpt: as §1
as §2, with “microscope. NHEJ phenylmethylsulfonylfluoride (PMSF) and protease activity was calculated by the number of GFP-positive inhibitor cocktail) followed by sonication 3 times and a cells in cells transfected with pEGFP-EcoRI divided by final spin at 20,000 rpm for 30 minutes to generate a clear that in cells transfected with pEGFP-StuI, multiplied by lysate. To perform the immunoprecipitation, enzymes were 100.” for “microscope.”
as §3

[8] = tested on: NHEJ in MDA-MB-231 breast cancer cells; test: 384-well image-based cellular NHEJ assay; format: cell-based; details: Homo sapiens; MDA-MB-231, n=3
Excerpt: as §1
as §2, with “microscope. NHEJ phenylmethylsulfonylfluoride (PMSF) and protease activity was calculated by the number of GFP-positive inhibitor cocktail) followed by sonication 3 times and a cells in cells transfected with pEGFP-EcoRI divided by final spin at 20,000 rpm for 30 minutes to generate a clear that in cells transfected with pEGFP-StuI, multiplied by lysate. To perform the immunoprecipitation, enzymes were 100.” for “microscope.”
as §3

[9] = tested on: NHEJ in PC3 prostate cancer cells; test: 384-well image-based cellular NHEJ assay; format: cell-based; details: Homo sapiens; PC3, n=3
Excerpt: as §1
as §2, with “microscope. NHEJ phenylmethylsulfonylfluoride (PMSF) and protease activity was calculated by the number of GFP-positive inhibitor cocktail) followed by sonication 3 times and a cells in cells transfected with pEGFP-EcoRI divided by final spin at 20,000 rpm for 30 minutes to generate a clear that in cells transfected with pEGFP-StuI, multiplied by lysate. To perform the immunoprecipitation, enzymes were 100.” for “microscope.”
as §3

CCN1C(=O)CNc2ncc(-c3ccc(-c4nc[nH]n4)nc3C)nc21 [CC-115, 1-ethyl-7-(2-methyl-6-(1H-1,2,4-triazol-3-yl)pyridin-3yl)-3,4-dihydropyrazino[2,3-b]pyrazin-2(1H)-one]
apoptosis induction (Caspase 3/7) [1]: induced strong apoptosis | ATM-proficient cell lines less sensitive to inhibition of colony formation [2]: 100 fold | DNA-PKcs, XRCC4 and DNA ligase IV bound to DNA over time [3]: retained from 10 minutes through the end of the reaction at 60 minutes | IC50 [4]: 160 ± 10 nM | GFP-positive cells (pEGFP-EcoRI) (NHEJ in Cal-51 cells [5]): 1.25% | GFP-positive cells (pEGFP-StuI) (NHEJ in Cal-51 cells [5]; DMSO 25.71%): 10.47% | IC50 [6]: 6350 ± 2980 nM | IC50 (NHEJ in Cal-51 cells [7]): 3150 ± 1330 nM | IC50 [8]: 2160 ± 910 nM | IC50 [9]: 2720 ± 1690 nM
